According to patent publication US9096591B2, “Tetracyclic compounds” (Medivation Technologies, Inc., priority 2007, dated 2015):

Experiments:
[1] = molecular target: T1, human recombinant adrenergic α2B receptor (Homo sapiens, UniProt P18089); experiment: Adrenergic α2B radioligand binding ([3H]Rauwolscine); parameters: Inhibition of ligand binding, Adren. alpha2B: concentration or dose not given beside the values; details: percent inhibition of specific binding
T1 construct: expressed in transfected cells; host or cells: CHO-K1 cells
T1 sequence (P18089 1-450): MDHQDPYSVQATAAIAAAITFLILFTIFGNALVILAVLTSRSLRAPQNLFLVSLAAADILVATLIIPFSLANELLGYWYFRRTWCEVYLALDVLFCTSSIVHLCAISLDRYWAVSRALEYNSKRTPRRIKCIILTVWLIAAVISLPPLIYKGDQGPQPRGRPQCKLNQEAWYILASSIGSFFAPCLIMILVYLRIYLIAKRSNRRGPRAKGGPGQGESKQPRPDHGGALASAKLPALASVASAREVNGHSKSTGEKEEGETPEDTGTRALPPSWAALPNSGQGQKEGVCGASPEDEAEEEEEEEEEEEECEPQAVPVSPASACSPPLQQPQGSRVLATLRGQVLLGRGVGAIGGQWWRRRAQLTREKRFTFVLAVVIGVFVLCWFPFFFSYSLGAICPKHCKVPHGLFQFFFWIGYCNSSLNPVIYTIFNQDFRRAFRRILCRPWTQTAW
Method in brief: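 Incubation ran 60 minutes at 25 °C in modified Tris-HCl buffer (50 mM, pH 7.4, 12.5 mM MgCl2, 1 mM EDTA, 0.2% BSA) using CHO-K1-expressed human receptor.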

[2] = molecular target: T2, human recombinant serotonin (5-Hydroxytryptamine) 5-HT2A receptor (Homo sapiens, UniProt P28223); experiment: Serotonin 5-HT2A radioligand binding ([3H]Ketanserin); details: percent inhibition of specific binding
T2 construct: expressed in transfected cells; host or cells: CHO-K1 cells
Description: (§1) Compounds of the invention were incubated with 0.5 nM [^3H]Ketanserin for 60 minutes at 25° C. Non-specific binding was estimated in the presence of 1 μM Mianserin. Receptor proteins were filtered and washed, the filters were then counted to determine [^3H]Ketanserin specifically bound. […] Biochemical assay results are presented as the percent inhibition of specific binding in Table 6.

[3] = molecular target: T3, human recombinant adrenergic α1D receptor (Homo sapiens, UniProt P25100); experiment: Adrenergic α1D radioligand binding ([3H]Prozosin); parameters: Inhibition of ligand binding, Adren. alpha1D: concentration or dose not given beside the values; details: percent inhibition of specific binding
T3 construct: expressed in transfected cells; host or cells: HEK-293 cells
T3 sequence (P25100 1-572): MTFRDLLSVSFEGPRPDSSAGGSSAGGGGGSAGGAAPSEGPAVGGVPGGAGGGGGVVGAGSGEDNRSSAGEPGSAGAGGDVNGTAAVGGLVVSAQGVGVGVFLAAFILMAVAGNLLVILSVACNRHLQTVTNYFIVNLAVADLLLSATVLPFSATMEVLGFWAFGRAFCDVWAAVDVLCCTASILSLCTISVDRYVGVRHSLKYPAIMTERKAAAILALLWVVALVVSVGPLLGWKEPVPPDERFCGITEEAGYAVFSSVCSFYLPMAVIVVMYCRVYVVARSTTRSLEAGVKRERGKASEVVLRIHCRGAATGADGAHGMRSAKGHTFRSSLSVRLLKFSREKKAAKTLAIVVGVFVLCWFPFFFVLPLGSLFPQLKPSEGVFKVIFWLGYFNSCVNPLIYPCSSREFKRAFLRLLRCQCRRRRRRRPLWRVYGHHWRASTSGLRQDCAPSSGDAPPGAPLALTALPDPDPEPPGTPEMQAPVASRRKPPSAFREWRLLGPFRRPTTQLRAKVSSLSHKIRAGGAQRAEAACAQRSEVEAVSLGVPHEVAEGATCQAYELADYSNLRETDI
Description: as §1, with “of” for “of the”, “0.6” for “0.5”, “[^3H]Prozosin” for “[^3H]Ketanserin”, “10” for “1”, “phentolamine.” for “Mianserin.”

[4] = molecular target: T4, human recombinant serotonin (5-Hydroxytryptamine) 5-HT2C receptor (Homo sapiens, UniProt P28335); experiment: Serotonin 5-HT2C radioligand binding ([3H]Mesulergine); parameters: Inhibition of ligand binding, Ser. 5-HT2C: concentration or dose not given beside the values; details: percent inhibition of specific binding
T4 construct: expressed in transfected cells; host or cells: CHO-K1 cells
T4 sequence (P28335 33-458): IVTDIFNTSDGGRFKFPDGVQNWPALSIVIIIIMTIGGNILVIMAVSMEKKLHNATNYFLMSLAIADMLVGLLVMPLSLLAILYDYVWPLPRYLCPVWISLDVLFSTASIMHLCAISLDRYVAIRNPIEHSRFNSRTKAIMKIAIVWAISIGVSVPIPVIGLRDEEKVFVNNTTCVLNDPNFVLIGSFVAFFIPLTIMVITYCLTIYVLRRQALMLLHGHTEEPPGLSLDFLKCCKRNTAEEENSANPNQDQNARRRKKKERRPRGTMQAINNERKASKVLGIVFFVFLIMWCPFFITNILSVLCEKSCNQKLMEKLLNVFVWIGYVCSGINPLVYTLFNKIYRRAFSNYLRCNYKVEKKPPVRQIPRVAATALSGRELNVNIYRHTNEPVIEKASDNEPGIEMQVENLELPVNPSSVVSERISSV
Description: as §1, with “1” for “0.5”, “[^3H]Mesulergine” for “[^3H]Ketanserin”

[5] = molecular target: T5, human recombinant histamine H2 receptor (Homo sapiens, UniProt P25021); experiment: Histamine H2 radioligand binding ([125I]Aminopotentidine); details: percent inhibition of specific binding; screened at 1 μM; read-out: Inhibition of ligand binding, Hist. H2
T5 construct: expressed in transfected cells; host or cells: CHO-K1 cells
Method in brief: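 This radioligand binding assay measured displacement of [125I]Aminopotentidine from recombinant human histamine H2 receptors. Compounds were dissolved in 1% DMSO vehicle. Specific binding was calculated by subtracting non-specific binding, defined using 3 μM Tiotidine, and activity was reported as percentage inhibition of that specific binding.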

T5 sequence (P25021 whole entry): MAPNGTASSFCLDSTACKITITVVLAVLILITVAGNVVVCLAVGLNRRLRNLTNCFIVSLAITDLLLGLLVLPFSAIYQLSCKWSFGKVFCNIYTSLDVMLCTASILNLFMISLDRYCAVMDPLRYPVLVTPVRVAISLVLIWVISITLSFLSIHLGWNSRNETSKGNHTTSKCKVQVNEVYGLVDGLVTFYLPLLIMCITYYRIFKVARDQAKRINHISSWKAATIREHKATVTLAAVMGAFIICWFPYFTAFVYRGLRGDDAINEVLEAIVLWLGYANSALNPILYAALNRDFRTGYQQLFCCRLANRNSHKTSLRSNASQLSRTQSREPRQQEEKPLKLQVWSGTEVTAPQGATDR
T2 sequence (P28223 whole entry): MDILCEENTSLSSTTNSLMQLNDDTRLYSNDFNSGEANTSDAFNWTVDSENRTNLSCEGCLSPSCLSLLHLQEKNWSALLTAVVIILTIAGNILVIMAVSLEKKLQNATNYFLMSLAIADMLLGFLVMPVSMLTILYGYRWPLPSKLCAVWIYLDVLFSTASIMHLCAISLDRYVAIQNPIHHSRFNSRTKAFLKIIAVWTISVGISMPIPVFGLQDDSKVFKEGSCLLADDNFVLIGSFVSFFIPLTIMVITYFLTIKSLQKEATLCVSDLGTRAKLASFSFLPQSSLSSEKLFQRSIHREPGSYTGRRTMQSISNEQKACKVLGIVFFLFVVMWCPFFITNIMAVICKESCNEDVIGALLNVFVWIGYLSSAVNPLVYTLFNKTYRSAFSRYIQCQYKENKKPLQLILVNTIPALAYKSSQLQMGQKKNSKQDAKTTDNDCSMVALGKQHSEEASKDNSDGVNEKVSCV

Row | SMILES | Inhibition of ligand binding, Adren. alpha2B [1] [%] | Inhibition of ligand binding, Ser. 5-HT2A [2] [%] | Inhibition of ligand binding, Adren. alpha1D [3] [%] | Inhibition of ligand binding, Ser. 5-HT2C [4] [%] | inhibition at 1 µM [5] [%]
1 | CC(Cn1c2c(c3ccccc31)CN(C)CC2)c1ccc(F)cc1 (stereo not drawn) [Compound 455] | 120 | 99 | 81 | 97 | 91
2 | Cc1ccc2c(c1)c1c(n2CC(=O)N2CCCC(C)C2)CCN(C)C1 (stereo not drawn) [Compound 401, 2-(1,2,3,4-tetrahydro-2,8-dimethylpyrido[4,3-b]indol-5-yl)-1-(3-methylpiperidin-1-yl)ethanone] | 3 | 17 | 1 | 39 | 14
3 | CC(C)c1ccc2c(c1)c1c(n2CCc2ccc(C(F)(F)F)nc2)CCN(C)C1 [Compound 342, 8-Isopropyl-2-methyl-5-[2-(6-trifluoromethyl-pyridin-3-yl)-ethyl]-2,3,4,5-tetrahydro-1H-pyrido[4,3-b]indole] | 108 | 74 | 91 | 73 | 39
4 | Cc1ccc2c(c1)c1c(n2CCC(=O)N2CCC(NC(=O)OC(C)(C)C)CC2)CCN(C)C1 [Compound 393, tert-butyl 1-(3-(1,2,3,4-tetrahydro-2,8-dimethylpyrido[4,3-b]indol-5-yl)propanoyl)piperidin-4-ylcarbamate] | 28 | 19 | 16 | 26 | 3
5 | CN1CCc2c(c3cc(Cl)ccc3n2CCC2CCCCC2)C1 [Compound 164, 8-chloro-5-(2-cyclohexylethyl)-2,3,4,5-tetrahydro-2-methyl-1H-pyrido[4,3-b]indole] | 93 | 91 | 32 | 95 | 84
6 | CCc1ccc2c(c1)c1c(n2CCc2cnc(C)cn2)CCN(C)C1 [Compound 364, 8-Ethyl-2-methyl-5-[2-(5-methyl-pyrazin-2-yl)-ethyl]-2,3,4,5-tetrahydro-1H-pyrido[4,3-b]indole] | 109 | 59 | 77 | 81 | 13
7 | CN1CCc2c(c3cc(Cl)ccc3n2CCc2cncc(Cl)c2)C1 [Compound 444, 8-chloro-5-(2-(5-chloropyridin-3-yl)ethyl)-2,3,4,5-tetrahydro-2-methyl-1H-pyrido[4,3-b]indole] | 113 | 95 | 91 | 95 | 80
8 | Cc1ccc2c(n1)c1c(n2CCc2ccc(C(F)(F)F)nc2)CCN(C)C1 [Compound 353, 9-aza-2,8-dimethyl-5-(2-(6-(trifluoromethyl)pyridin-3-yl)ethyl)-2,3,4,5-tetrahydro-1H-pyrido[4,3-b]indole] | 11 | −1 | 11 | −15 | -2
9 | CN1CCc2c(c3ccc(Cl)cc3n2CCc2ccccc2)C1 [Compound 82] | 99 | 99 | 64 | 95 | 99
10 | Cc1cnc(CCn2c3c(c4cc(C(C)C)ccc42)CN(C)CC3)cn1 [Compound 369, 8-Isopropyl-2-methyl-5-[2-(5-methyl-pyrazin-2-yl)-ethyl]-2,3,4,5-tetrahydro-1H-pyrido[4,3-b]indole] | 105 | 10 | 51 | 57 | 6
11 | CN1CCc2c(c3cc(Cl)ccc3n2CCc2cncnc2)C1 [Compound 424, 8-Chloro-2-methyl-5-(2-pyrimidin-5-yl-ethyl)-2,3,4,5-tetrahydro-1H-pyrido[4,3-b]indole] | 94 | 52 | 57 | 76 | 19
12 | Cc1ccc2c(c1)c1c(n2CC(C)c2ccc(F)cc2)CCN(C)C1 (stereo not drawn) [Compound 456, 5-(2-(4-fluorophenyl)propyl)-2,3,4,5-tetrahydro-2,8-dimethyl-1H-pyrido[4,3-b]indole] | 110 | 104 | 96 | 99 | 98
13 | Cc1ccc2c(c1)c1c(n2CCN2CCCCC2)CCN(C)C1 [Compound 224, 2,3,4,5-tetrahydro-2,8-dimethyl-5-(2-(piperidin-1-yl)ethyl)-1H-pyrido[4,3-b]indole] | 46 | 32 | 22 | 74 | 79
14 | CN1CCc2c(c3cc(Cl)ccc3n2CCc2cccnc2)C1 [Compound 55] | 90 | 86 | 84 | 87 | 62
15 | Cc1ccc2c(c1)c1c(n2CCc2ccc(C(F)(F)F)nc2)CCN(C)C1 [Compound 68] | 111 | 98 | 98 | 78 | 49
